The target in one assay is T1, mouse Kv1.3 (Mus musculus, UniProt P16390).
T1 construct: gene Kcna3; mouse Kv1.3 stably expressed in L929 cells
In words: whole-cell patch clamp. The assay is classed as cell-based.

The target in a further assay is T2, Kv1.3 potassium channel (Homo sapiens, UniProt P22001).
T2 construct: gene KCNA3; His-Kv1.3 expressed in 293T cells and purified (gel shift); endogenous Kv1.3 in Jurkat T cells (patch clamp)
The assay can be described thus: IC50 from whole-cell patch clamp in Jurkat T cells. The class given is cell-based.

T1 sequence (P16390 whole entry): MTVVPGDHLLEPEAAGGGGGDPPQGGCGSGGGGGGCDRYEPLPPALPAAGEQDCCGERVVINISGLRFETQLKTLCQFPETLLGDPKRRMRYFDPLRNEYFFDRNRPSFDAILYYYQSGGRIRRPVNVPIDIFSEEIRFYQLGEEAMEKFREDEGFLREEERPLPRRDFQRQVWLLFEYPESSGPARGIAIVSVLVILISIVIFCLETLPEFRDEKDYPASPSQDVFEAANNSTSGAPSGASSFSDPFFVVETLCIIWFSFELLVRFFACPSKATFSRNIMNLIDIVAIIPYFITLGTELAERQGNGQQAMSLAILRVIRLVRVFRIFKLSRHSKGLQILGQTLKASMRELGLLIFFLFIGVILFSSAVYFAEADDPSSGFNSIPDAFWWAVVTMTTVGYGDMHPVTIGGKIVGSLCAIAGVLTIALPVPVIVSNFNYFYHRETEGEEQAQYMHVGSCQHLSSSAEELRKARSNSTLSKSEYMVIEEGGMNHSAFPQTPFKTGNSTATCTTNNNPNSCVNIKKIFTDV
T2 sequence (P22001 whole entry): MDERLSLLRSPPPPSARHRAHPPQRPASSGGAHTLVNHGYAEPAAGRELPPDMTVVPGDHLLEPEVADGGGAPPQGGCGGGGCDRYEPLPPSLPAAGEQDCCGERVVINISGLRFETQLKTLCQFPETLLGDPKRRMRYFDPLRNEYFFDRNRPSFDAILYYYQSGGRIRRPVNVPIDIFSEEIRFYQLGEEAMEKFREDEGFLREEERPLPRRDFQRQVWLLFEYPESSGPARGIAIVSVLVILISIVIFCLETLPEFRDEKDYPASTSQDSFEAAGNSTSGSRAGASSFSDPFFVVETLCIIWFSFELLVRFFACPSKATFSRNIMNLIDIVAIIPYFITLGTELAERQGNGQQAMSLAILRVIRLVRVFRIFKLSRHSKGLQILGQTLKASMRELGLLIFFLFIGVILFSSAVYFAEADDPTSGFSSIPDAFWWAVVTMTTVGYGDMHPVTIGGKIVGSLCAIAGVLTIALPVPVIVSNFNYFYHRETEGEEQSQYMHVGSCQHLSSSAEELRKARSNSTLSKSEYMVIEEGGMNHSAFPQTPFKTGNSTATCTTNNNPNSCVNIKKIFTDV

On to `CC(C)/N=c1\cc2n(-c3ccc(Cl)cc3)c3ccccc3nc-2cc1Nc1ccc(Cl)cc1` [CLF, clofazimine], for which the figures for the 50% inhibitory concentration (IC50) at mouse Kv1.3 and at Kv1.3 potassium channel were 470 nM and 300 nM, respectively.
